“And” between values parts separate entries of the source, which are not always exact repeats. Equal entries are not always repeated.
How the values were obtained:
[1] = system: Streptozocin-induced insulin deficient rats; assay: Fasted blood glucose in streptozocin-induced insulin deficient rats, chromium compounds in drinking water for four weeks; type: in vivo; conditions: for Fasted Blood Glucose (fold increase over four weeks): drinking water, about 42 μg/kg, four hrs fasting
Experimental: In vivo experiments gave much more dramatic differences, which are summarized in Table 1 below in which the increase in fasting blood glucose was measured after four weeks as compared to untreated animals: Streptozocin-induced insulin deficient rats were used to evaluate the insulin potentiating activity of several compounds. […] As consequence, these rats develop severe hyperglycemia. So far, certain known chromium compounds were known to potentiate action of insulin, however, the actual mechanism was not clearly understood. […] In our studies in vivo, chromium compounds were provided in drinking water for four weeks at a concentration of about 42 μg/kg. Vein blood was collected following four hrs fasting and used for fasted blood glucose level test. The study results for two tests are given below in Table 3 in which the increase in blood glucose in given as a fold increase over four weeks.

L6 muscle cells = assay: Total glucose uptake in L6 muscle cells (2-NBDG fluorescence); type: cell-based; conditions: 2 hrs treatment
Experimental: Total glucose uptake was measure using fluorescent analog of glucose, 2-NBDG (2-(N-(7-nitrobenz-2-oxa-1,3-diazol-4-yl)amino)-2-deoxyglucose) from Molecular Probes Inc. L6 myoblastic cells were treated for 2 hrs with tested compounds in culture medium SkBM from Clonetics. After washing, cells were transferred to HBSA (Hepes-buffered Saline), pH 7.0 with 50 mcM of 2-NBDG without glucose. One minute later, cells were washed with ice-cold PBS, and fixed in −20 C 70% ethanol. Fluorescence was measured at 480/530 (excitation/emission).

Question: Which results are given for “chromium picolinate [Cr-picolinate, reference compound]”?
Answer: Fasted Blood Glucose (fold increase over four weeks) ([1]; STUDY 1): 2.02 fold; Fasted Blood Glucose (fold increase over four weeks) ([1]; STUDY 2): 2.37 fold; BLOOD GLUCOSE INCREASE (% of untreated) ([1]; diabetic rats, after four weeks, untreated = 100%): 95.56%; BLOOD GLUCOSE INCREASE ([1]; diabetic rats, increase in fasting blood glucose after four weeks): 2.37

Question: For CN(C)C(=N)N=C(N)N [Metformin, reference compound], which “Fasted Blood Glucose (fold increase over four weeks)” value ([1]; STUDY 1) is on record?
Answer: The value was 0.96 fold.

Question: With “chromium niacin [CrNiacin, reference compound]” as the compound, how does the “Fasted Blood Glucose (fold increase over four weeks)” value ([1]; STUDY 1) read?
Answer: Its value is 1.91 fold.

Question: Which results are given for O.O.O.O.O.O.[Cl][Cr]([Cl])[Cl] [CrCl3, CrCl3 hexahydrate, reference compound]?
Answer: Fold over Control, Average (L6 muscle cells; Conc. 10 nM): 1.55 fold; Fold over Control, Average (L6 muscle cells; Conc. 100 nM): 2.05 fold; Fold over Control, Average (L6 muscle cells; Conc. 1000 nM): 2.08 fold; Fasted Blood Glucose (fold increase over four weeks) ([1]; STUDY 1): 1.32 fold

Question: Chromium-mono-Aminooxyacetate [CROA-1] was tested. Which “Fold over Control (single values)” value (L6 muscle cells; Conc. 10 nM) did it give?
Answer: The value was 1.41 fold and 1.66 fold and 2.10 fold.

Question: What about the “Fold over Control, Average” value (L6 muscle cells; Conc. 10 nM) of the same compound?
Answer: The value was 1.72 fold.

Question: What about the “Fold over Control (single values)” value (L6 muscle cells; Conc. 100 nM) of the same compound?
Answer: The value was 2.12 fold and 2.16 fold and 2.80 fold.

Question: What about the “Fold over Control, Average” value (L6 muscle cells; Conc. 100 nM) of the same compound?
Answer: The value was 2.36 fold.

Question: What about the “Fold over Control (single values)” value (L6 muscle cells; Conc. 1000 nM) of the same compound?
Answer: Its value is 2.58 fold and 2.10 fold and 2.50 fold.

Question: And the “Fold over Control, Average” value (L6 muscle cells; Conc. 1000 nM)?
Answer: The value was 2.39 fold.
